Tested on: L1210
Experiment: Capacity to inhibit tumor cells in vitro using L1210 murine leukemia cells
Type: functional, cell-based
Conditions: Mus musculus

Row | Structure (SMILES) | IC50
1 | NC1=NC(=O)C2N=NC([C@@H]3O[C@H](CO)[C@@H](O)[C@H]3O)=C2O1 (some centres not stated) | 100 µM
2 | O=c1[nH]c(=O)c2[nH]nc([C@@H]3O[C@H](CO)[C@@H](O)[C@H]3O)c2o1 | 0.2 µM

Source: ChEMBL document CHEMBL1125272, “Synthetic approaches to the guanosine and xanthosine analogues 5-amino-3-beta-D-ribofuranosylpyrazolo[3,4-e][1,3]oxazin-7-one and 3-beta-D-ribofuranosylpyrazolo[3,4-e][1,3]oxazine-5,7-dione and studies of their antitumor potential” (J Med Chem, 1991)
